In ChEMBL document CHEMBL1145159 (J Med Chem, 2005):
Peptide text beside a SMILES is read from it.

Experiments:
[1] = target: T1, Neuronal acetylcholine receptor; alpha4/beta2 (Homo sapiens, UniProt P17787+P43681); assay: Inhibitory concentration against Nicotinic acetylcholine receptor alpha4-beta2; format: protein-complex assay
[2] = target: T2, Neuronal acetylcholine receptor; alpha3/beta2 (Homo sapiens, UniProt P17787+P32297); assay: Inhibitory concentration against Nicotinic acetylcholine receptor alpha3-beta2; format: protein-complex assay
T2 sequence (P17787 whole entry): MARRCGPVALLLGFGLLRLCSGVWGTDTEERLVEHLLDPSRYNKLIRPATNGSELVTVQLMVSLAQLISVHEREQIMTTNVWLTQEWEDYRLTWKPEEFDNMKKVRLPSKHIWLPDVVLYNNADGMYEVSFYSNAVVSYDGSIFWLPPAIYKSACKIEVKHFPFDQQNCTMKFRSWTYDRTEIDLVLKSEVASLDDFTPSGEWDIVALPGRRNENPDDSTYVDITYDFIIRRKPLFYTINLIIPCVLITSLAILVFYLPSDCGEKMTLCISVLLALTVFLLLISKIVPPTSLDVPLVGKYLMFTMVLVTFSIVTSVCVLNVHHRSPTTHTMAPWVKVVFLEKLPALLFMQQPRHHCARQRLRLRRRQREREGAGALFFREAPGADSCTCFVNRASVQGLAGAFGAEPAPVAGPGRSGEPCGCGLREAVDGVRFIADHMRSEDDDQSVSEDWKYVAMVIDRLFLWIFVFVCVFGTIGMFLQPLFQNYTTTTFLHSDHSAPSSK
T2 sequence (P32297 whole entry): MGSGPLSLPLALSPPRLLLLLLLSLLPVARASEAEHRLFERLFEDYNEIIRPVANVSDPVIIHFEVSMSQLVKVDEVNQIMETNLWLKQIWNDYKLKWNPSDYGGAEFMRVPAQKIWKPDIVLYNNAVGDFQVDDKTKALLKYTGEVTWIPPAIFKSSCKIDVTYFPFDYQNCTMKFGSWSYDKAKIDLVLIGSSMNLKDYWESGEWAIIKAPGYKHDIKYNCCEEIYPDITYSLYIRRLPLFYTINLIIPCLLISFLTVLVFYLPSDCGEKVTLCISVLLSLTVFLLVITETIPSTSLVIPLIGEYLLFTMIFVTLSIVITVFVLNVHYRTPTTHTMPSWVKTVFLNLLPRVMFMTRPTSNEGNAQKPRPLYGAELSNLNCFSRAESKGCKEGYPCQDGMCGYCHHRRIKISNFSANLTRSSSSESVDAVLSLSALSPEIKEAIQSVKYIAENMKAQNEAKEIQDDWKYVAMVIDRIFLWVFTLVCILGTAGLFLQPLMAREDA

[3] = target: T3, Neuronal acetylcholine receptor; alpha2/beta2 (Homo sapiens, UniProt P17787+Q15822); assay: Inhibitory concentration against Nicotinic acetylcholine receptor alpha2-beta2; format: protein-complex assay
T3 sequence (P17787 whole entry): as the sequence (P17787 whole entry) above
T3 sequence (Q15822 whole entry): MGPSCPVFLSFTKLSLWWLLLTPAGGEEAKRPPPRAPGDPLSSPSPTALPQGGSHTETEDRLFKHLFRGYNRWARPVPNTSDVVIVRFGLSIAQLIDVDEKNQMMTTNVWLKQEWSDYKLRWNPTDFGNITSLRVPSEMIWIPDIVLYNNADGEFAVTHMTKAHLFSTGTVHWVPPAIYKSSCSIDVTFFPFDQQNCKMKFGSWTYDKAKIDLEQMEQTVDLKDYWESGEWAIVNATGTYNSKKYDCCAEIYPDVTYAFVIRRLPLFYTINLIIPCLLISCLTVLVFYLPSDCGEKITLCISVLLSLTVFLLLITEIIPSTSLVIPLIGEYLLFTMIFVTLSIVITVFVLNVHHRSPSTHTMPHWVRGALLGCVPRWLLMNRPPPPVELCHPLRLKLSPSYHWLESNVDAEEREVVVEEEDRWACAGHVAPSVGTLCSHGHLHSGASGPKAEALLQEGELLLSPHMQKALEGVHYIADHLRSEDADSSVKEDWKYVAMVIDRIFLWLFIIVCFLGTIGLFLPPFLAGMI

[4] = target: T4, Neuronal acetylcholine receptor subunit alpha-7 (Homo sapiens, UniProt P36544); assay: Inhibitory concentration against Nicotinic acetylcholine receptor alpha 7
T4 sequence (P36544 whole entry): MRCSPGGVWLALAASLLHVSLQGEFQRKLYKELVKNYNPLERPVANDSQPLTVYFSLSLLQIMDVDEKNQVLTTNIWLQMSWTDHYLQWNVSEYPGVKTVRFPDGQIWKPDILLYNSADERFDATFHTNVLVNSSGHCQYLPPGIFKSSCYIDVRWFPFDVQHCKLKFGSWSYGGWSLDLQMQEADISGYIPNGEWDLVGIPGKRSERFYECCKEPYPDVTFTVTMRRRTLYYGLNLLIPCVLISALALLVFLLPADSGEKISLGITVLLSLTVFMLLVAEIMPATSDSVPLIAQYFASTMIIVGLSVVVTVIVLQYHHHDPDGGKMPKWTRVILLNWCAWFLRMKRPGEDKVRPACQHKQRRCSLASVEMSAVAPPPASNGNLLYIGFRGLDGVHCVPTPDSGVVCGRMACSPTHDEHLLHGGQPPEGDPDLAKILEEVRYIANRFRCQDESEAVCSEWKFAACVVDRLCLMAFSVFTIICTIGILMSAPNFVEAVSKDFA

[5] = target: T2, Neuronal acetylcholine receptor; alpha3/beta2; assay: Inhibitory concentration against Nicotinic acetylcholine receptor alpha3-beta2; Range is 0.5-8 nM; format: protein-complex assay
[6] = Inhibitory concentration against Nicotinic acetylcholine receptor alpha-6-alpha-3-beta-2; Range is 0.5-8 nM; design: species or system Homo sapiens
[7] = target: T4, Neuronal acetylcholine receptor subunit alpha-7; assay: Inhibitory concentration against Nicotinic acetylcholine receptor alpha7; Range is 0.5-8 nM
[8] = Inhibitory concentration against Nicotinic acetylcholine receptor alpha-6-alpha-4-beta-4; Range is 0.7-1 nM
[9] = target: T1, Neuronal acetylcholine receptor; alpha4/beta2; assay: Inhibitory concentration against Nicotinic acetylcholine receptor alpha4-beta2; Range is 0.5-8 nM; format: protein-complex assay
[10] = Inhibitory concentration against Nicotinic acetylcholine receptor alpha6-beta4; Range is 0.7-1 nM; design: species or system Homo sapiens
[11] = Inhibitory concentration against Nicotinic acetylcholine receptor alpha-6-alpha-3-beta-2; Range is 0.7-1 nM; design: species or system Homo sapiens
[12] = target: Neuronal acetylcholine receptor; alpha3/beta4 (Homo sapiens, UniProt P30926+P32297); assay: Inhibitory concentration against Nicotinic acetylcholine receptor alpha3-beta4; Range is 100-200 nM; format: protein-complex assay
Neuronal acetylcholine receptor; alpha3/beta4, sequence (P30926 whole entry): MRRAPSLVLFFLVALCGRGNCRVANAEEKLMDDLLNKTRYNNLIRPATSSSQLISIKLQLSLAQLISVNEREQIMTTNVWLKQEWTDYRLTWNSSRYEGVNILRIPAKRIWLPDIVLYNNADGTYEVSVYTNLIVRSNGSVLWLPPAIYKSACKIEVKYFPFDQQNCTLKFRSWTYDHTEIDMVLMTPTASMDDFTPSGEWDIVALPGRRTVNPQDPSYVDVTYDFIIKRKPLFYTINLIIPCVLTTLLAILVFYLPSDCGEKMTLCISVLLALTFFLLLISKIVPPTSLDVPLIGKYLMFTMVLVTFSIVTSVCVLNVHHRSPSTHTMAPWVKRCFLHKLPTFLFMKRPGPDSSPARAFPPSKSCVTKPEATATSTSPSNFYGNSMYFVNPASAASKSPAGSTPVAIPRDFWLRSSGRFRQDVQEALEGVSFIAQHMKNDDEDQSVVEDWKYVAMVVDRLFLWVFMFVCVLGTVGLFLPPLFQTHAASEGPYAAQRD
Neuronal acetylcholine receptor; alpha3/beta4, sequence (P32297 whole entry): as the sequence (P32297 whole entry) above

[13] = target: T4, Neuronal acetylcholine receptor subunit alpha-7; assay: Inhibitory concentration against Nicotinic acetylcholine receptor alpha7; Range is 100-200 nM
[14] = target: Neuronal acetylcholine receptor subunit alpha-9 (Homo sapiens, UniProt Q9UGM1); assay: Inhibitory concentration against Nicotinic acetylcholine receptor alpha9; Range is 100-200 nM
Neuronal acetylcholine receptor subunit alpha-9, sequence (Q9UGM1 whole entry): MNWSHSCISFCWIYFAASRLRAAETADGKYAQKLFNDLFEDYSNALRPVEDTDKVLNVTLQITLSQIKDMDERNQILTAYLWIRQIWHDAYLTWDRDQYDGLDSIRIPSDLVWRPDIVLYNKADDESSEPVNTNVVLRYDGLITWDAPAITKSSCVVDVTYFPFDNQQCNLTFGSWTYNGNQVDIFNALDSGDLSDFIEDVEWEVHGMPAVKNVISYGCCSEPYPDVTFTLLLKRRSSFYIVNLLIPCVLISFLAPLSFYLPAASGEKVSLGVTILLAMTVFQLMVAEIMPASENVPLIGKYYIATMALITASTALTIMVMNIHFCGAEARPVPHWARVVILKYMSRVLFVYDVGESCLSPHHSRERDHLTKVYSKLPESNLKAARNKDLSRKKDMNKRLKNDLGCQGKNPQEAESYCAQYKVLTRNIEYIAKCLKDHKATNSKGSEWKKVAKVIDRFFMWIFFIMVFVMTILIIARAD

[15] = target: Neuronal acetylcholine receptor; alpha2/beta4 (Homo sapiens, UniProt P30926+Q15822); assay: Inhibitory concentration against Nicotinic acetylcholine receptor alpha2-beta4; Range is 0.3-1.5 nM; format: protein-complex assay
Neuronal acetylcholine receptor; alpha2/beta4, sequence (P30926 whole entry): as the sequence (P30926 whole entry) above
Neuronal acetylcholine receptor; alpha2/beta4, sequence (Q15822 whole entry): as the sequence (Q15822 whole entry) above

[16] = target: T3, Neuronal acetylcholine receptor; alpha2/beta2; assay: Inhibitory concentration against Nicotinic acetylcholine receptor alpha2-beta2; Range is 0.3-1.5 nM; format: protein-complex assay
[17] = target: T4, Neuronal acetylcholine receptor subunit alpha-7; assay: Inhibitory concentration against Nicotinic acetylcholine receptor alpha7; Range is 0.3-1.5 nM
[18] = target: T2, Neuronal acetylcholine receptor; alpha3/beta2; assay: Inhibitory concentration against Nicotinic acetylcholine receptor alpha3-beta2; Range is 0.3-1.5 nM; format: protein-complex assay
[19] = target: Neuronal acetylcholine receptor; alpha4/beta4 (Homo sapiens, UniProt P30926+P43681); assay: Inhibitory concentration against Nicotinic acetylcholine receptor alpha4-beta4; Range is 0.3-1.5 nM; format: protein-complex assay
Neuronal acetylcholine receptor; alpha4/beta4, sequence (P30926 whole entry): as the sequence (P30926 whole entry) above
Neuronal acetylcholine receptor; alpha4/beta4, sequence (P43681 whole entry): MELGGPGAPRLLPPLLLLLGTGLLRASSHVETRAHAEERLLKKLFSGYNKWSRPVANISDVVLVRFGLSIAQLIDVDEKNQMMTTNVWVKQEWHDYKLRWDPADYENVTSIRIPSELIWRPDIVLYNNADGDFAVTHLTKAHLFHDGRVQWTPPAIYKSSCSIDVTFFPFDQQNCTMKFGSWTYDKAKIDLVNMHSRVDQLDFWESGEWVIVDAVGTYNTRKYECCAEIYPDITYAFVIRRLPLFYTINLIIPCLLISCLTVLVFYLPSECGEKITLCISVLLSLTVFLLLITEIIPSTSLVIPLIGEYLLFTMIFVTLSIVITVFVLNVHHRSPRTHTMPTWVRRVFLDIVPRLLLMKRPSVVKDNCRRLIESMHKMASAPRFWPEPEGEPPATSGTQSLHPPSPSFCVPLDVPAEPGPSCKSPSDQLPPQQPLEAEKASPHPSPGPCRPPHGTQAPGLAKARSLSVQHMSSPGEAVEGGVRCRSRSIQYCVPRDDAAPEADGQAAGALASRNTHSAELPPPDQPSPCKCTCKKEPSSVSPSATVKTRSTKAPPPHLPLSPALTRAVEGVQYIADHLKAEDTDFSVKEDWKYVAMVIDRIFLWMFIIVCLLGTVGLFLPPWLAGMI

[20] = target: T1, Neuronal acetylcholine receptor; alpha4/beta2; assay: Inhibitory concentration against Nicotinic acetylcholine receptor alpha4-beta2; Range is 0.3-1.5 nM; format: protein-complex assay
[21] = target: Neuronal acetylcholine receptor; alpha3/beta2 (Rattus norvegicus) (UniProt P04757+P12390); assay: Maximal response against rat neural Nicotinic acetylcholine receptor alpha3-beta2; format: protein-complex assay
[22] = target: Neuronal acetylcholine receptor; alpha4/beta2 (Rattus norvegicus) (UniProt P09483+P12390); assay: Maximal response against rat neural Nicotinic acetylcholine receptor alpha4-beta2; format: protein-complex assay
[23] = target: Neuronal acetylcholine receptor; alpha3/beta4 (Rattus norvegicus) (UniProt P04757+P12392); assay: Maximal response against rat neural Nicotinic acetylcholine receptor alpha3-beta4; format: protein-complex assay
[24] = target: Neuronal acetylcholine receptor subunit alpha-7 (Rattus norvegicus) (UniProt Q05941); assay: Maximal response against rat neural Nicotinic acetylcholine receptor alpha 7
Neuronal acetylcholine receptor subunit alpha-7 (Rattus norvegicus), sequence (Q05941 whole entry): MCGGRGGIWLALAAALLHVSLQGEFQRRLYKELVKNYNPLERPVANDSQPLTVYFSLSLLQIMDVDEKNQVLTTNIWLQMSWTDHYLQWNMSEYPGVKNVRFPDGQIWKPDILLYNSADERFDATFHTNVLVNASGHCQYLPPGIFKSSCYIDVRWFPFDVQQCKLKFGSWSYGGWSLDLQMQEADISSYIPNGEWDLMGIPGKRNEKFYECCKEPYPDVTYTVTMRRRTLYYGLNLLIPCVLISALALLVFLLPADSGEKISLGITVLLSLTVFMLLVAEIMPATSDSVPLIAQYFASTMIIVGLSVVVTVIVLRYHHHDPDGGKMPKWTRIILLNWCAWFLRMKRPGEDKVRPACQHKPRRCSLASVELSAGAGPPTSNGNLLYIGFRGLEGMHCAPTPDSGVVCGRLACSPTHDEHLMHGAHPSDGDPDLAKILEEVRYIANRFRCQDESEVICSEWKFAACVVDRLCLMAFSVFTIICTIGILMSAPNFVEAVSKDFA

T1 sequence (P17787 whole entry): as the sequence (P17787 whole entry) above
T1 sequence (P43681 whole entry): as the sequence (P43681 whole entry) above

For `CC(C)C[C@H](NC(=O)[C@H](CO)NC(=O)[C@H](CS)NC(=O)[C@H](CS)NC(=O)CN)C(=O)N1CCC[C@H]1C(=O)N1CCC[C@H]1C(=O)N[C@@H](CS)C(=O)N[C@@H](C)C(=O)N[C@@H](C)C(=O)N[C@@H](CC(N)=O)C(=O)N[C@@H](CC(N)=O)C(=O)N1CCC[C@H]1C(=O)N[C@@H](CC(=O)O)C(=O)N[C@@H](Cc1ccc(O)cc1)C(=O)N[C@@H](CS)C(N)=O` (H-GCCSLPPCAANNPDYC-NH2), the IC50 [1] was 9.6 nM, the IC50 [2] was 9.6 nM and the IC50 [3] was 9.6 nM. It also gave an IC50 [4] of 9.6 nM.
In the case of `CC(C)C[C@H](NC(=O)[C@H](CC(N)=O)NC(=O)[C@H](CO)NC(=O)[C@H](Cc1c[nH]cn1)NC(=O)[C@H](CCC(=O)O)NC(=O)[C@H](CC(C)C)NC(=O)[C@H](Cc1c[nH]cn1)NC(=O)[C@H](CS)NC(=O)[C@@H](NC(=O)[C@@H]1CCCN1C(=O)[C@H](CC(N)=O)NC(=O)[C@H](CO)NC(=O)[C@H](CS)NC(=O)[C@H](CS)NC(=O)CN)C(C)C)C(=O)N[C@@H](CS)C(N)=O`, the IC50 [5] is reported as 8 nM, the IC50 [6] is reported as 8 nM and the IC50 [7] is reported as 8 nM. For the same molecule, the IC50 [8] was 8 nM and the IC50 [9] was 8 nM.
`CC[C@H](C)[C@H](NC(=O)[C@H](CCC(N)=O)NC(=O)[C@@H]1CCCN1C(=O)[C@H](CC(N)=O)NC(=O)[C@H](Cc1c[nH]cn1)NC(=O)[C@@H](NC(=O)[C@@H](NC(=O)[C@H](CS)NC(=O)[C@@H](NC(=O)[C@@H]1CCCN1C(=O)[C@H](CC(N)=O)NC(=O)[C@H](CO)NC(=O)[C@H](CS)NC(=O)[C@H](CS)NC(=O)[C@@H]1CCCN1C(=O)[C@@H](N)CC(=O)O)C(C)C)[C@@H](C)O)C(C)C)C(=O)N[C@@H](CS)C(N)=O` (H-DPCCSNPVCTVHNPQIC-NH2) gave an IC50 [10] of 1 nM and an IC50 [11] of 1 nM.
Work on `C[C@H](NC(=O)[C@H](CS)NC(=O)[C@H](CCCN=C(N)N)NC(=O)[C@@H]1CCCN1C(=O)[C@H](CC(=O)O)NC(=O)[C@H](CO)NC(=O)[C@H](CS)NC(=O)[C@H](CS)NC(=O)CN)C(=O)N[C@@H](Cc1c[nH]c2ccccc12)C(=O)N[C@@H](CCCN=C(N)N)C(N)=O` (H-GCCSDPRCAWR-NH2) yielded an IC50 [12] of 200 nM, an IC50 [13] of 200 nM and an IC50 [14] of 200 nM.
Work on `C[C@H](NC(=O)[C@H](Cc1ccccc1)NC(=O)[C@H](CS)NC(=O)[C@@H]1CCCN1C(=O)[C@@H]1CCCN1C(=O)[C@H](Cc1ccc(O)cc1)NC(=O)[C@H](CO)NC(=O)[C@H](CS)NC(=O)[C@H](CS)NC(=O)CN)C(=O)N[C@H](C(=O)N[C@@H](CC(N)=O)C(=O)N1CCC[C@H]1C(=O)N[C@@H](CC(=O)O)C(=O)N[C@H](C=O)CS)[C@@H](C)O` yielded an IC50 [15] of 0.75 nM, an IC50 [16] of 0.75 nM and an IC50 [17] of 0.75 nM. It also gave an IC50 [18] of 0.75 nM, an IC50 [19] of 0.75 nM and an IC50 [20] of 0.75 nM.
For `Cc1cc([C@@H]2CCN2C)on1`, the Rmax [21] was 119%, the Rmax [22] was 55% and the Rmax [23] was 50%. For the same molecule, the Rmax [24] was 50%.
